Experimental data: patent US20060025394A1, “Estradiol-related compounds and methods of use as anti-tumor agents” (priority 2003, published 2006)

Columns and labels:
MCF-7 = assay: Cytotoxicity testing (Example 7), MTS, MCF-7; assay type: cell-based
Experimental: (§1) Cytotoxicity Studies were done in DU-145 and MCF-7 Cells. […] We set out to test the efficacy of these compounds based on known affinities for ER-α previously reported. Cells were treated for five days with 1 mM of each compound in a defined media. Cell number was estimated by the MTS method. Similar studies were carried out in the MCF-7 cell line known to express both ER-α and -β, and display proliferative properties in the presence of classic estrogens.

DU-145 = assay: Cytotoxicity testing (Example 7), MTS, DU-145; assay type: cell-based; conditions: for DU145 % Cell#: five days, MTS
Experimental: as §1

[1] = system: DU145, PC3, and LNCaP cell lines; assay: MTS assay, values averaged or stated over the CaP cell lines; assay type: cell-based; conditions: average
Experimental: (§2) DU145, LNCaP, PC3, and MCF-7 cells were obtained from the American Type Culture Collection (Manassas, Va.). DU145, PC3, and MCF-7 cells were maintained in Dulbecco's modified Eagle's medium/F-12 supplemented with 5% heat inactivated Fetal Calf Serum and Penicillin/Streptomycin (Invitrogen Life Technologies, Carlsbad, Calif.). LNCaP cells were maintained in RPMI 1640 medium supplemented in the same fashion. Cells were cultured in 75 cm^2 flasks (Falcon, BD Biosciences, Bedford, Mass.) at 37° C. and 5% CO2. For the MTS assay (Example 3), five thousand cells were plated in each well of a 24 well plate (Falcon), were allowed to attach for a 48-hour period in the media described, and changed to a defined medium, (DMEM/F-12 or RPMI1640) supplemented with insulin (BD Biosciences). A 1000× solution of the compound of interest solubilized in DMSO (Sigma, Saint Louis, Mo.) was diluted in the defined media just prior to starting each experiment, and media was refreshed every 48 to 72 hours throughout the experiments.
(§3) . Upon completing five days of treatment, the medium in each well was exchanged for 400 μL of an MTS solution (3-(4,5-dimethylthiazol-2-yl)-5-(3-carboxymethoxyphenyl)-2-(4-sulfophenyl)-2H-tetrazolium, inner salt; O'Toole SA, 2003, Cancer Detect Prev., 2003;27(1):47-54) spiked into media as per the manufacture's instructions (Promega, Madison, Wis.) and incubated for 2 hours at 37° C. before reading the absorbance on the μQuant UV/VIS plate reader, in conjunction with KCjunior Software (Bio-Tek Instruments, Winooski, Vt.) set at 490 nm. All experiments were carried out in quadruplicate, control wells were treated with the carrier DMSO. E2, which is estradiol-17β (Steraloids®, Newport, R.I.) and resveratrol (Sigma) were used as controls. […]

NCR nude mice = conditions: 5 to 40 mg/kg/day bolus IM injection, 40-day period
Experimental: Doses included 5 to 40 mg/kg/day bolus IM injection. Toxicity effects were gauged based on changes in animal weight and gross analysis of specific organs including liver, lung, prostate, brain, spleen, heart, and kidney, collected, and fixed in paraffin sections.

DU145 = assay: MTS cell viability assay in DU145; assay type: cell-based; conditions: DU145, concentrations above 1 μM
Experimental: as §2, §3

[2] = Table 3, five days, 1 mM of each compound, defined media
[3] = Table 3, 1 mM of each compound, defined media
[4] = Table 4 comparative study, five days, 1 mM
[5] = Table 4 comparative study, 1 mM

Row | Structure (SMILES) | MCF-7 % Cell# (MCF-7; [2]) | DU145 % Cell# (DU-145; [3]) | MCF-7 % Cell# (MCF-7; [4]) | DU145 % Cell# (DU-145; [5]) | also measured
1 | COc1ccc(C=CC2(O)CCC3C4CCc5cc(O)ccc5C4CCC32C)cc1 (stereo not shown) [Compound 11] | 28% | 60% | – | – | –
2 | CC12CCC3c4ccc(O)cc4CCC3C1CCC2(O)C=Cc1ccccc1 (stereo not shown) [Compound 1] | 22% | 62% | – | – | –
3 | COc1ccc2c(c1)CCC(c1ccccc1)=C2c1ccc(OCCN2CCCC2)cc1.Cl [Compound 34, 4-11, 100A, reference compound] | – | – | 32% | 29% | –
4 | CN(C)CCOc1ccc([C@H]2C[C@]3(C)[C@@H](O)CC[C@H]3[C@@H]3CCc4cc(O)ccc4[C@H]32)cc1 [Compound 31, RU 39411, reference compound] | – | – | 102% | 102% | –
5 | C[C@]12CC[C@@H]3c4ccc(O)cc4C[C@@H](CCCCCCCCC[S+]([O-])CCCC(F)(F)C(F)(F)F)[C@H]3[C@@H]1CC[C@@H]2O (stereo partly shown) [Compound 32, ICI-182780, reference compound] | – | – | 62% | 94% | –
6 | CC12CCC3c4ccc(O)cc4CCC3C1CCC2(O)C=Cc1ccccc1CO (stereo not shown) [Compound 16] | 55% | 105% | – | – | –
7 | CC12CCC3c4ccc(O)cc4CCC3C1CCC2(O)C=Cc1ccc(C(=O)O)cc1 (stereo not shown) [Compound 8] | 120% | 99% | – | – | –
8 | CC12CCC3c4ccc(O)cc4CCC3C1CCC2(O)C=Cc1ccc(C#N)cc1 (stereo not shown) [Compound 10] | 23% | 92% | – | – | –
9 | C[C@]12C[C@H](c3ccc(OCCCCCS(=O)(=O)CCCC(F)(F)C(F)(F)F)cc3)[C@@H]3c4ccc(O)cc4CC[C@H]3[C@@H]1CC[C@@H]2O [Compound 26, RU 58668, reference compound] | – | – | 37% | 73% | –
10 | Oc1ccc(C=Cc2cc(O)cc(O)c2)cc1 [resveratrol] | – | – | – | – | decrease in cell number ([1]; positive control): 65±5.3%
11 | Cc1cccc(C=CC2(O)CCC3C4CCc5cc(O)ccc5C4CCC32C)c1 (stereo not shown) [Compound 5] | 24% | 9% | – | – | overall result in cytotoxicity testing (Table 3) (DU-145): good results
12 | COC(=O)c1ccc(C=CC2(O)CCC3C4CCc5cc(O)ccc5C4CCC32C)cc1 (stereo not shown) [Compound 15] | 32% | 92% | – | – | –
13 | COC(=O)c1ccccc1C=CC1(O)CCC2C3CCc4cc(O)ccc4C3CCC21C (stereo not shown) [Compound 12] | 30% | 92% | – | – | –
14 | CC12CCC3c4ccc(O)cc4CCC3C1CCC2(O)C=Cc1ccccc1F (stereo not shown) [Compound 2] | 40% | 80% | – | – | –
15 | CC12CCC3c4ccc(O)cc4CCC3C1CCC2(O)C=Cc1ccc(C(F)(F)F)cc1 (stereo not shown) [Compound 25] | 13% | 5% | – | – | overall result in cytotoxicity testing (Table 3) (DU-145): good results; general toxicity (animal weight, gross analysis of organs) (NCR nude mice): No apparent detrimental effects
16 | C#C[C@]1(O)CC[C@H]2[C@@H]3CCC4=Cc5oncc5C[C@]4(C)[C@H]3CC[C@@]21C [Compound 35, Danazol, reference compound] | – | – | 107% | 92% | –
17 | CC/C(=C(\c1ccccc1)c1ccc(OCCN(C)C)cc1)c1ccccc1 [Compound 33, Z-TAM, reference compound] | – | – | 25% | 56% | –
18 | C#C[C@]1(O)CC[C@H]2[C@@H]3CCc4cc(O)ccc4[C@H]3[C@H](OC)C[C@@]21C [Compound 37, RU16117, reference compound] | – | – | 103% | 101% | –

Row | Structure (SMILES) | MCF-7 % Cell# (MCF-7; [2]) | DU145 % Cell# (DU-145; [3]) | MCF-7 % Cell# (MCF-7; [4]) | DU145 % Cell# (DU-145; [5]) | also measured
19 | CC12CCC3c4ccc(O)cc4CCC3C1CCC2(O)C=CBr (stereo not drawn) [Compound 22, 17α-Br-vinyl-E2, reference compound] | 59% | 91% | – | – | –
20 | CC12CCC3c4ccc(O)cc4CCC3C1CCC2(O)C=Cc1ccccc1CO (stereo not shown) [Compound 20] | 24% | 97% | – | – | –
21 | CC12CCC3c4ccc(O)cc4CCC3C1CCC2(O)C=Cc1ccc([N+](=O)[O-])cc1 (stereo not shown) [Compound 46] | 35% | 44% | – | – | –
22 | CC12CCC3c4ccc(O)cc4CCC3C1CCC2(O)C=Cc1ccccc1C(=O)O (stereo not shown) [Compound 24] | 61% | 103% | – | – | –
23 | C=CC1(O)CCC2C3CCc4cc(O)ccc4C3CCC21C (stereo not drawn) [Compound 13, 17α-vinyl-E2, reference compound] | 53% | 98% | – | – | –
24 | CC/C(=C(\c1ccccc1)c1ccc(OCCN(C)C)cc1)c1ccccc1.O=C(O)CC(O)(CC(=O)O)C(=O)O [Compound 30, TAM Citr, reference compound] | – | – | 33% | 47% | –
25 | CC12CCC3c4ccc(O)cc4CCC3C1CCC2(O)C=Cc1ccccc1[N+](=O)[O-] (stereo not shown) [Compound 49] | 29% | 17% | – | – | –
26 | C[C@]1(O)CC[C@H]2[C@@H]3CCC4=CC(=O)CCC4=C3C=C[C@@]21C [Compound 29, RU 1881, reference compound] | – | – | 94% | 99% | –
27 | CC12CCC3c4ccc(O)cc4CCC3C1CCC2(O)C=Cc1ccc(F)cc1 (stereo not shown) [Compound 6] | 28% | 67% | – | – | –
28 | Cc1ccc(C=CC2(O)CCC3C4CCc5cc(O)ccc5C4CCC32C)cc1 (stereo not shown) [Compound 3] | 23% | 33% | – | – | –
29 | CC12CCC3c4ccc(O)cc4CCC3C1CCC2(O)C=Cc1ccc(F)cc1 (stereo not shown) [Compound 9] | 27% | 17% | – | – | overall result in cytotoxicity testing (Table 3) (DU-145): good results
30 | C[C@]12CC[C@@H]3c4ccc(O)cc4CC[C@H]3[C@@H]1CC[C@@H]2O [Compound E2, estradiol-17β, reference compound] | 90% | 100% | 90% | 100% | cytotoxic or proliferative effects (DU145): no apparent cytotoxic or proliferative effects; difference in cell number over non-treated cells ([1]; negative control): 0±3.4%
31 | CC12CCC3c4ccc(O)cc4CCC3C1CCC2(O)C=Cc1ccccc1 (stereo not shown) [Compound 48] | 27% | 47% | – | – | –
32 | CC12CCC3c4ccc(O)cc4CCC3C1CCC2(O)C=Cc1cccc(C(F)(F)F)c1 (stereo not shown) [Compound 23] | 19% | 5% | – | – | overall result in cytotoxicity testing (Table 3) (DU-145): good results
33 | CC/C(=C(\c1ccccc1)c1ccc(OCCN(C)C)cc1)c1ccccc1 [Compound 27, ICI 47, 699, reference compound] | – | – | 21% | 12% | –
34 | COC(=O)c1ccc(C=CC2(O)CCC3C4CCc5cc(O)ccc5C4CCC32C)cc1 (stereo not shown) [Compound 4] | 28% | 100% | – | – | –
35 | CC12CCC3c4ccc(O)cc4CCC3C1CCC2(O)C=Cc1ccccc1C(F)(F)F (stereo not shown) [Compound 19] | 20% | 5% | – | – | overall result in cytotoxicity testing (Table 3) (DU-145): good results
